Results on nine compounds are retold here after US4772551A (priority 1985, dated 1988).

The test system of the first experiment is polyclonal antibodies produced to aflatoxin B1 and ochratoxin A. Particulars: cited from earlier work.
In the case of `C[C@@H]1Cc2c(Cl)cc(C(=O)N[C@@H](Cc3ccccc3)C(=O)O)c(O)c2C(=O)O1` [ochratoxin A], the sensitivity is recorded as 5-10 ppb.

The target of a further experiment is T-2 reactive monoclonal antibody. The class given is binding, murine.
Conditions: not given
Consider `CC(=O)OC[C@]12C[C@H](O)C(C)=C[C@H]1O[C@@H]1[C@H](O)[C@@H](OC(C)=O)[C@@]2(C)[C@]12CO2` [Neosolaniol], for which the “50% Inhibition (concentration required to inhibit binding of antibody by 50%)” value (“50% Inhibition” below) is 1.6 µg/mL and the “Minimal Inhibition (concentration required for first significant inhibition of binding of antibody)” value was found to be 1.0 µg/mL.
The corresponding values for `CC1=C[C@H]2O[C@@H]3[C@H](O)[C@@H](O)[C@](C)([C@@]2(CO)C[C@@H]1OC(=O)CC(C)C)[C@]31CO1` [T-2 triol] are 14.9 µg/mL and 5.0 µg/mL.
The corresponding values for `CC(=O)OC[C@]12C[C@H](OC(=O)CC(C)(C)O)C(C)=C[C@H]1O[C@@H]1[C@H](O)[C@@H](OC(C)=O)[C@@]2(C)[C@]12CO2` [3'OH T-2] are 0.018 µg/mL and 0.005 µg/mL.
In the case of `CC(=O)OC[C@]12C[C@H](OC(=O)CC(C)C)C(C)=C[C@H]1O[C@@H]1[C@H](O)[C@@H](O)[C@@]2(C)[C@]12CO2` [HT-2], the “50% Inhibition” value turned out to be 1.0 µg/mL, the “Minimal Inhibition (concentration required for first significant inhibition of binding of antibody)” value worked out at 0.5 µg/mL, the “cross reaction with T-2 monoclonal antibody” value was “relatively weak cross-reaction” and the “reactivity relative to T-2” value amounted to 2%.
On to `CC(=O)OC[C@]12C[C@H](OC(=O)CC(C)C)C(C)=C[C@H]1O[C@@H]1[C@H](OC(=O)CCC(=O)O)[C@@H](OC(C)=O)[C@@]2(C)[C@]12CO2` [T-2HS, T-2-hemisuccinate], for which the “50% Inhibition” value turned out to be 0.072 µg/mL and the “Minimal Inhibition (concentration required for first significant inhibition of binding of antibody)” value amounted to 0.01 µg/mL.
With `CC(=O)OC[C@]12C[C@H](OC(=O)CC(C)(C)O)C(C)=C[C@H]1O[C@@H]1[C@H](O)[C@@H](O)[C@@]2(C)[C@]12CO2` [3'OH HT-2], the “50% Inhibition” value was 0.100 µg/mL and the “Minimal Inhibition (concentration required for first significant inhibition of binding of antibody)” value was 0.05 µg/mL.
As for `CC1=C[C@H]2O[C@@H]3[C@H](O)C[C@](C)([C@@]2(CO)[C@H](O)C1=O)[C@]31CO1` [Deoxynivalanol], the “50% Inhibition” value is reported as > 1000. ug/ml and the “Minimal Inhibition (concentration required for first significant inhibition of binding of antibody)” value is on record as > 1000. ug/ml.
For the compound `CC(=O)OC[C@]12C[C@H](OC(=O)CC(C)C)C(C)=C[C@H]1O[C@@H]1[C@H](OC(C)=O)[C@@H](OC(C)=O)[C@@]2(C)[C@]12CO2` [Acetyl T-2], the “50% Inhibition” value was 0.094 µg/mL, the “Minimal Inhibition (concentration required for first significant inhibition of binding of antibody)” value turned out to be 0.01 µg/mL and the “cross reaction with T-2 monoclonal antibody” value is given as “strong cross reaction”.
